# Target: T1, FXR (Homo sapiens, UniProt Q96RI1)
# T1 construct: expressed in transfected cells; host or cells: CV-1 cells
# T1 sequence (Q96RI1 1-486): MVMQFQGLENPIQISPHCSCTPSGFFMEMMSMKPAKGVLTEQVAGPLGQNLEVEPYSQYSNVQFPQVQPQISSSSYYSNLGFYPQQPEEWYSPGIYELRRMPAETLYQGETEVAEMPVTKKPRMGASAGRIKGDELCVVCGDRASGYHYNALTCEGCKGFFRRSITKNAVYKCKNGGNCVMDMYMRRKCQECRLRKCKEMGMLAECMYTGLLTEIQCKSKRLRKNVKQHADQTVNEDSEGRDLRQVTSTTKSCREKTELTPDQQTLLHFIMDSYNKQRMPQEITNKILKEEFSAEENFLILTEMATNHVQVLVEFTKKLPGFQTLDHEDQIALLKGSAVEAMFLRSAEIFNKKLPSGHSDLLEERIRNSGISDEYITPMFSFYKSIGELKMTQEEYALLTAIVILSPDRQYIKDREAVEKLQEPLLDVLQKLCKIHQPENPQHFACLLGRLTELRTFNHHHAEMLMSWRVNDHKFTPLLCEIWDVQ
# T1 sequence (P19793 1-462 partner): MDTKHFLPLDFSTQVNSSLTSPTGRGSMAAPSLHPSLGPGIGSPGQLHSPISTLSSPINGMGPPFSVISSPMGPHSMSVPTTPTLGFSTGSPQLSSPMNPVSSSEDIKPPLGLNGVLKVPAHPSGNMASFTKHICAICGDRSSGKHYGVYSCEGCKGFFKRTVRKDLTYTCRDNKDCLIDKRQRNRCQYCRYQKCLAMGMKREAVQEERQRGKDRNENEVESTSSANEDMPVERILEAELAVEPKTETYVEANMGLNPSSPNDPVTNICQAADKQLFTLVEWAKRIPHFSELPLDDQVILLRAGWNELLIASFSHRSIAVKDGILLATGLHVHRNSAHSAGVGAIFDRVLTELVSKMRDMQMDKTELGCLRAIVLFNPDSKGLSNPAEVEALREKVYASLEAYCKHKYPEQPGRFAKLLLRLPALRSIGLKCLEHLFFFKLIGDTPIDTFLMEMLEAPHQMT
# Assay: In Vitro FXR Assay (TK): TK-ECRE-luc reporter in transfected CV-1 cells
# Assay type: cell-based
# Conditions: CV-1 cells transfected with hFXR, hRXR, 18 h incubation, luminescence
# Procedure: Example B-2: In Vitro FXR Assay (TK)
# CV-1 cells were seeded at a density of 2,000,000 cells in a T175 flask with DMEM+10% charcoal double-stripped FBS and incubated at 37° C. in 5% CO2 for 18 h (O/N).
# After 18 h of incubation, the medium in the T175 flask was changed with fresh DMEM+10% charcoal super-stripped serum. In a polypropylene tube, 2500 μL OptiMEM (Life Technologies, Cat #31985-062) was combined with expression plasmids for hFXR, hRXR, TK-ECRE-luc and pCMX-YFP. The tube was then briefly vortexed and incubated at room temperature for 5 minutes. Transfection reagent (X-tremeGENE HP from Roche, Cat #06 366 236 001) was added to the OptiMEM/plasmid mixture vortexed and incubated at room temperature for 20 minutes. Following incubation, the transfection reagent/DNA mixture complex was added to cells in the T175 flask and the cells were incubated at 37° C. in 5% CO2 for 18 h (O/N).
# Compounds were serially diluted in DMSO and added to transfected CV-1 cells. The cells were then incubated for 18 hrs. The next day cells were lysed and examined for luminescence.
row,SMILES,EC50
1,"COC(=O)/C=C/c1cccc(N(Cc2ccc(-c3ccc(N(C)C)cc3)cc2)C(=O)C2(C)CCCCC2)c1 [13.3, (E)-Methyl 3-(3-(N-((4′-(dimethylamino)-[1,1′-biphenyl]-4-yl)methyl)-1-methylcyclohexane-carboxamido)phenyl)acrylate]",1000 to 10000 nM
2,"COC(=O)/C=C/c1cccc(N(Cc2ccc(-c3ccc(N(C)C)cc3)cc2)C(=O)[C@H]2CC[C@H](N)CC2)c1 [compound 97, (E)-Methyl 3-(3-(trans-4-amino-N-((4′-(dimethylamino)-[1,1′-biphenyl]-4-yl)methyl)cyclohexanecarboxamido)phenyl) acrylate]",> 10000 nM
3,"COC(=O)/C=C/c1cccc(N(Cc2ccc(-c3ccc(N(C)C)cc3)cc2)C(=O)C2CCC(=O)NC2)c1 (stereo not shown) [13.17, (E)-Methyl 3-(3-(N-((4′-(dimethylamino)-[1,1′-biphenyl]-4-yl)methyl)-6-oxopiperidine-3-carboxamido)phenyl)acrylate]",1000 to 10000 nM
4,"COC(=O)/C=C/c1cccc(N(Cc2ccc(-c3ccc(N(C)C)cc3)cc2)C(=O)[C@H]2CC[C@@H](S(C)(=O)=O)CC2)c1 [13.14, cis-(E)-Methyl 3-(3-(N-((4′-(dimethylamino)-[1,1′-biphenyl]-4-yl)methyl)-4-(methylsulfonyl)cyclohexanecarboxamido)phenyl)acrylate]",1000 to 10000 nM
5,"COC(=O)/C=C/c1cccc(N(Cc2ccc(-c3ccc(N(C)C)cc3)cc2)C(=O)c2ccc(O)cc2)c1 [13.21, (E)-Methyl 3-(3-(N-((4′-(dimethylamino)-[1,1′-biphenyl]-4-yl)methyl)-4-hydroxybenzamido)phenyl)acrylate]",≤ 1000 nM
6,"COC(=O)/C=C/c1cccc(N(Cc2ccc(-c3ccc(N(C)C)cc3)cc2)C(=O)C2CN(S(C)(=O)=O)C2)c1 [13.11, (E)-Methyl 3-(3-(N-((4′-(dimethylamino)-[1,1′-biphenyl]-4-yl)methyl)-1-(methylsulfonyl)azetidine-3-carboxamido)phenyl)acrylate]",1000 to 10000 nM
7,"COC(=O)/C=C/c1cccc(N(Cc2ccc(-c3ccc(N(C)C)cc3)cc2)C(=O)c2cccc(OC)c2)c1 [13.10, (E)-Methyl 3-(3-(N-((4′-(dimethylamino)-[1,1′-biphenyl]-4-yl)methyl)-3-methoxybenzamido)phenyl)acrylate]",1000 to 10000 nM
8,"COC(=O)/C=C/c1cccc(N(Cc2ccc(-c3ccc(N(C)C)cc3)cc2)C(=O)C2CCC(=O)CC2)c1 [compound 17, (E)-Methyl 3-(3-(N-((4′-(dimethylamino)-[1,1′-biphenyl]-4-yl)methyl)-4-oxocyclohexanecarboxamido)phenyl)acrylate]",≤ 1000 nM

# The remaining lines, values ahead:
row,EC50,SMILES
1,≤ 1000 nM,"COC(=O)/C=C/c1cc(Cl)cc(N(Cc2ccc(-c3ccc(N(C)C)cc3)cc2)C(=O)C2CCCCC2)c1 [86.10, (E)-Methyl 3-(3-chloro-5-(N-((4′-(dimethylamino)-[1,1′-biphenyl]-4-yl)methyl)cyclohexanecarboxamido)phenyl) acrylate]"
2,1000 to 10000 nM,"COC(=O)/C=C/c1cccc(N(Cc2ccc(-c3ccc(OC)c(C)c3)cc2)C(=O)C2CCN(S(C)(=O)=O)CC2)c1 [62.17, (E)-Methyl 3-(3-(N-((4′-methoxy-3′-methyl-[1,1′-biphenyl]-4-yl)methyl)-1-(methylsulfonyl)piperidine-4-carboxamido)phenyl)acrylate]"
3,≤ 1000 nM,"COC(=O)/C=C/c1cccc(N(Cc2ccc(-c3ccc(N(C)C)cc3)c(C#N)c2)C(=O)C2CCCCC2)c1 [62.11, (E)-Methyl 3-(3-(N-((2-cyano-4′-(dimethylamino)-[1,1′-biphenyl]-4-yl)methyl)cyclohexanecarboxamido)phenyl) acrylate]"
4,≤ 1000 nM,"COC(=O)/C=C/c1cccc(N(Cc2ccc(-c3ccc(OC)c(Cl)c3)cc2)C(=O)C2CCCCC2)c1 [62.10, (E)-Methyl 3-(3-(N-((3′-chloro-4′-methoxy-[1,1′-biphenyl]-4-yl)methyl)cyclohexanecarboxamido)phenyl) acrylate]"
5,> 10000 nM,"COC(=O)/C=C/c1cccc(N(Cc2ccc(-c3cccc(S(C)(=O)=O)c3)cc2)C(=O)C2CCCCC2)c1 [62.8, (E)-Methyl 3-(3-(N-((3′-(methylsulfonyl)-[1,1′-biphenyl]-4-yl)methyl)cyclohexanecarboxamido)phenyl) acrylate]"
6,1000 to 10000 nM,"COC(=O)/C=C/c1cccc(N(Cc2ccc(-c3ccc4ncsc4c3)cc2)C(=O)C2CCCCC2)c1 [75.9, (E)-Methyl 3-(3-(N-(4-(benzo[d]thiazol-6-yl)benzyl)cyclohexanecarboxamido)phenyl) acrylate]"
7,1000 to 10000 nM,"COC(=O)/C=C/c1cc(N(Cc2ccc(-c3ccc(N(C)C)cc3)cc2)C(=O)C2CCCCC2)cc(C(F)(F)F)c1 [86.11, (E)-Methyl 3-(3-(N-((4′-(dimethylamino)-[1,1′-biphenyl]-4-yl)methyl)cyclohexanecarboxamido)-5-(trifluoromethyl)phenyl)acrylate]"
8,> 10000 nM,"CN(C)c1ccc(-c2ccc(CN(C(=O)C3CCCCC3)c3cccc(/C=C/C(=O)OCC4CCCO4)c3)cc2)cc1 (stereo not shown) [86.5, (E)-(Tetrahydrofuran-2-yl) methyl 3-(3-(N-((4′-(dimethylamino)-[1,1′-biphenyl]-4-yl)methyl)cyclohexanecarboxamido)phenyl) acrylate]"
9,≤ 1000 nM,"CCc1cc(-c2ccc(N(C)C)cc2)ccc1CN(C(=O)C1CCCCC1)c1cccc(/C=C/C(=O)OC)c1 [62.14, (E)-Methyl 3-(3-(N-((4′-(dimethylamino)-3-ethyl-[1,1′-biphenyl]-4-yl)methyl)cyclohexanecarboxamido)phenyl) acrylate]"
10,1000 to 10000 nM,"COC(=O)/C=C/c1cccc(N(Cc2ccc(-c3ccc(N(C)C)nn3)cc2)C(=O)C2CCCCC2)c1 [75.5, (E)-Methyl 3-(3-(N-(4-(6-(dimethylamino)pyridazin-3-yl)benzyl)cyclohexanecarboxamido)phenyl) acrylate]"
11,1000 to 10000 nM,"COC(=O)/C=C/c1cccc(N(Cc2ccc(-c3ccc(OC)c(C)c3)cc2)C(=O)C2CCN(C(C)=O)CC2)c1 [62.16, (E)-Methyl 3-(3-(1-acetyl-N-((4′-methoxy-3′-methyl-[1,1′-biphenyl]-4-yl)methyl)piperidine-4-carboxamido)phenyl)acrylate]"
12,> 10000 nM,"CN(C)c1ccc(-c2ccc(CN(C(=O)C3CCCCC3)c3cccc(/C=C/C(=O)OCc4ccccc4)c3)cc2)cc1 [86.7, (E)-Benzyl 3-(3-(N-((4′-(dimethylamino)-[1,1′-biphenyl]-4-yl)methyl)cyclohexanecarboxamido)phenyl) acrylate]"
13,> 10000 nM,"CN(C)CCOC(=O)/C=C/c1cccc(N(Cc2ccc(-c3ccc(N(C)C)cc3)cc2)C(=O)C2CCCCC2)c1 [86.4, (E)-2-(Dimethylamino)ethyl 3-(3-(N-((4′-(dimethylamino)-[1,1′-biphenyl]-4-yl)methyl)cyclohexanecarboxamido)phenyl) acrylate]"
14,1000 to 10000 nM,"COC(=O)/C=C/c1cccc(N(Cc2ccc(-c3ccc(OC)c(C)c3)cc2)C(=O)c2ccncc2)c1 [62.1, (E)-Methyl 3-(3-(N-((4′-methoxy-3′-methyl-[1,1′-biphenyl]-4-yl)methyl)isonicotinamido)phenyl)acrylate]"
15,1000 to 10000 nM,"COC(=O)/C=C/c1cccc(N(Cc2ccc(-c3ccc(N4CCC4)cc3)cc2)C(=O)C2CCCCC2)c1 [75.2, (E)-Methyl 3-(3-(N-((4′-(azetidin-1-yl)-[1,1′-biphenyl]-4-yl)methyl)cyclohexanecarboxamido)phenyl) acrylate]"
16,1000 to 10000 nM,"CCc1cc(CN(C(=O)C2CCCCC2)c2cccc(/C=C/C(=O)OC)c2)ccc1-c1ccc(N(C)C)cc1 [62.13, (E)-Methyl 3-(3-(N-((4′-(dimethylamino)-2-ethyl-[1,1′-biphenyl]-4-yl)methyl)cyclohexanecarboxamido)phenyl) acrylate]"
17,1000 to 10000 nM,"COC(=O)/C=C/c1cccc(N(Cc2ccc(-c3ccc(N(C)C)cc3)cc2)C(=O)C2COCCO2)c1 (stereo not shown) [17.2, (E)-Methyl 3-(3-(N-((4′-(dimethylamino)-[1,1′-biphenyl]-4-yl)methyl)-1,4-dioxane-2-carboxamido)phenyl)acrylate]"

# Reference: patent US10626081B2, “Farnesoid X receptor agonists and uses thereof” (Metacrine, Inc., priority 2015, dated 2020)
